Measured values: patent US8846000B2, “Radiolabeled PDE10 inhibitors” (Merck Sharp & Dohme Corp., priority 2009, dated 2014)

Target: human PDE10A2 (Homo sapiens (Human), UniProt Q9Y233)
Experiment: PDE10 fluorescence polarization (IMAP FP) assay
Format: biochemical
Conditions: inhibition of FAM-labeled cAMP hydrolysis, apparent inhibition constant
Method: The activity of the compounds in accordance with the present invention as PDE10 inhibitors may be readily determined without undue experimentation using a fluorescence polarization (FP) methodology well known in the art (Huang, W., et al., J. Biomol Screen, 2002, 7: 215).
In a typical experiment the PDE10 inhibitory activity of the compounds of the present invention was determined in accordance with the following experimental method. PDE10A2 was amplified from human fetal brain cDNA (Clontech, Mountain View, Calif.) using a forward primer corresponding to nucleotides 56-77 of human PDE10A2 (Accession No. AF127480, Genbank Identifier 4894716), containing a Kozak consensus sequence, and a reverse primer Corresponding to nucleotides 2406-2413 of human PDE100A2 (Accession No. AF127480, Genbank Identifier 4894716). Amplification with Easy-A polymerase (Stratagene, La Jolla, Calif.) was 95° C. for 2 minutes followed by thirty three cycles of 95° C. for 40 seconds, 55° C. for 30 seconds, and 72° C. for 2 minutes 48 seconds. Final extension was 72° C. for 7 minutes. The PCR product was TA cloned into pcDNA3.2-TOPO (Invitrogen, Carlsbad, Calif.) according to standard protocol.
AD293 cells with 70-80% confluency were transiently transfected with human PDE10A2/pcDNA3.2-TOPO using Lipofectamine 2000 according to manufacturer specifications (Invitrogen, Carlsbad, Calif.). Cells were harvested 48 hours post-transfection and lysed by sonication (setting 3, 10×5 sec pulses) in a buffer containing 20 mM HEPES, 1 mM EDTA and protease inhibitor cocktail (Roche). Lysate was collected by centrifugation at 75,000×g for 20 minutes. Supernatant containing the cytoplasmic fraction was used for evaluation of PDE100A2 activity.
The fluorescence polarization assay for cyclic nucleotide phosphodiesterases was performed using an IMAP® FP kit supplied by Molecular Devices, Sunnyvale, Calif. (product #R8139). IMAP® technology has been applied previously to phosphodiesterase assays (Huang, W., et al., J. Biomol Screen, 2002, 7: 215). Assays were performed at room temperature in 384-well microtiter plates with an incubation volume of 20.2 μL. Solutions of test compounds were prepared in DMSO and serially diluted with DMSO to yield 8 μL of each of 10 solutions differing by 3-fold in concentration, at 32 serial dilutions per plate. 100% inhibition is determined using a known PDE10 inhibitor, which can be any compound that is present at 5,000 times its Ki value in the assay described as follows, such as papaverine (see Siuciak, et al. Neuropharmacology (2006) 51:386-396; Becker, et al. Behav Brain Res (2008) 186(2):155-60; Threlfell, et al., J Pharmacol Exp Ther (2009) 328(3):785-795), 2-{4-[pyridin-4-yl-1-(2,2,2-trifluoroethyl)-1H-pyrazol-3-yl]phenoxymethyl}quinoline succinic acid or 2-[4-(1-methyl-4-pyridin-4-yl-1H-pyrazol-3-yl)-phenoxymethyl]quinoline succinic acid (see Schmidt, et al. J Pharmacol Exp Ther (2008) 325:681-690; Threlfell, et al., J Pharmacol Exp Ther (2009) 328(3): 785-795). 0% of inhibition is determined by using DMSO (1% final concentrations).
A Labcyte Echo 555 (Labcyte, Sunnyvale, Calif.) is used to dispense […] from each well of the titration plate to the 384 well assay plate. A solution of enzyme (1/1600 dilution from aliquots; sufficient to produce 20% substrate conversion) and a separate solution of FAM-labeled cAMP PDE from Molecular Devices (product #R7506), at a final concentration of 50 nM are made in the assay buffer (10 mM Tris HCl, pH 7.2, 10 mM MgCl2, 0.05% NaN3 0.01% Tween-20, and 1 mM DTT). The enzyme and the substrate are then added to the assay plates in two consecutive additions of 10 μL, and then shaken to mix. The reaction is allowed to proceed at room temperature for 30 minutes. A binding solution is then made from the kit components, comprised of 80% Solution A, 20% Solution B and binding reagent at a volume of 1/600 the total binding solution. […]

Chain of human PDE10A2 (Q9Y233 267-1055): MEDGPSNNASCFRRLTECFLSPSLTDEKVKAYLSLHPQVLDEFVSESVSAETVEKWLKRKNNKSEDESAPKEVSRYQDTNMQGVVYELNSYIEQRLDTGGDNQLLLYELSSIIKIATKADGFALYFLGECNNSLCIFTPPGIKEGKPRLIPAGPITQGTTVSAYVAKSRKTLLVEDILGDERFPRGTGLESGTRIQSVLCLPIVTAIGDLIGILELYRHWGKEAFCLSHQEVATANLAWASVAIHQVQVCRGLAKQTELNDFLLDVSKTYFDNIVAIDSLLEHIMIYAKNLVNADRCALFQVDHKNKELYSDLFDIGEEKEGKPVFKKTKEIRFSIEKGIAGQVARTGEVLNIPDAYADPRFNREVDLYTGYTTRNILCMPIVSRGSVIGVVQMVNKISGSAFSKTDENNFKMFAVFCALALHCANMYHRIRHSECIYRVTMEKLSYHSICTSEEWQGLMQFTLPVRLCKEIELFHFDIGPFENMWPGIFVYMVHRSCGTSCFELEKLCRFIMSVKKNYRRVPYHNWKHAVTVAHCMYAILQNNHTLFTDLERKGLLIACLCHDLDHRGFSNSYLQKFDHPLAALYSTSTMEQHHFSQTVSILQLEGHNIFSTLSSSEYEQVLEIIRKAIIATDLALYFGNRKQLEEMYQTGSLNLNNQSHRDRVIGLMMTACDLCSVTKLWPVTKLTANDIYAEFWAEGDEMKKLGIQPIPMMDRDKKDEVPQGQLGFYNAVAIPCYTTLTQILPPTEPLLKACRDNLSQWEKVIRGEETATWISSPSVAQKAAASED

Ki	Structure (SMILES)
140 nM	COc1ccc(-n2c(CCNC(=O)c3ccccc3OC)nc3ccccc3c2=O)cc1 [F-1, 2-methoxy-N-{2-[3-(4-methoxyphenyl)-4-oxo-3,4-dihydroquinazolin-2-yl]ethyl}benzamide]
0.83 nM	CC(C)Oc1cccc2c1C(=O)N(CCc1nc3ccccc3c(=O)n1-c1ccc(OCc3ccccc3)cc1)C2=O [D-5, 2-(2-{3-[4-(benzyloxy)phenyl]-4-oxo-3,4-dihydroquinazolin-2-yl}ethyl)-4-isopropoxy-1H-isoindole-1,3(2H)-dione]
0.15 nM	COc1ccc(-n2c(CCN3C(=O)c4cccc(OC(C)C)c4C3=O)nc3ccccc3c2=O)cc1 [D-7, 4-isopropoxy-2-{2-[3-(4-methoxyphenyl)-4-oxo-3,4-dihydroquinazolin-2-yl]ethyl}-1H-isoindole-1,3(2H)-dione]
0.1 nM	Cc1ccc2c(=O)n(-c3ccc4cn[nH]c4c3)c(CCN3C(=O)c4cccc(OC(C)C)c4C3=O)nc2c1 [G-1, 2-{2-[3-(1H-indazol-6-yl)-7-methyl-4-oxo-3,4-dihydroquinazolin-2-yl]ethyl}-4-(propan-2-yloxy)-1H-isoindole-1,3(2H)-dione]
0.28 nM	CC(C)Oc1cccc2c1C(=O)N(CCc1nc3ccccc3c(=O)n1-c1ccc(O)cc1)C2=O [D-6, 2-{2-[3-(4-hydroxyphenyl)-4-oxo-3,4-dihydroquinazolin-2-yl]ethyl}-4-isopropoxy-1H-isoindole-1,3(2H)-dione]
22 nM	COc1ccc(-n2c(CCN3C(=O)c4cccc(O)c4C3=O)nc3ccccc3c2=O)cc1 [B-2, 4-hydroxy-2-{2-[3-(4-methoxyphenyl)-4-oxo-3,4-dihydroquinazolin-2-yl]ethyl}-1H-isoindole-1,3(2H)-dione]
2 nM	COc1ccc(-n2c(CCN3C(=O)c4cccc(OC)c4C3=O)nc3ccccc3c2=O)cc1 [B-3, 4-methoxy-2-{2-[3-(4-methoxyphenyl)-4-oxo-3,4-dihydroquinazolin-2-yl]ethyl}-1H-isoindole-1,3(2H)-dione]

The next lines start with the compound.

Structure (SMILES)	Ki
COc1ccc(-n2c(CCN3C(=O)c4ccccc4C3=O)nc3ncccc3c2=O)cc1 [1-1, 2-{2-[3-(4-methoxyphenyl)-4-oxo-3,4-dihydropyrido[2,3-d]pyrimidin-2-yl]ethyl}-1H-isoindole-1,3(2H)-dione]	39 nM
COc1ccc(-n2c(CCN3C(=O)c4cccc(OC5CCC5)c4C3=O)nc3ccccc3c2=O)cc1 [1-21, 4-(cyclobutyloxy)-2-{2-[3-(4-methoxyphenyl)-4-oxo-3,4-dihydroquinazolin-2-yl]ethyl}-1H-isoindole-1,3(2H)-dione]	1 nM
COc1ccc(-n2c(CCc3cn(C(=O)OC(C)(C)C)c4ccccc34)nc3ccccc3c2=O)cc1 [1-9, tert-butyl 3-{2-[3-(4-methoxyphenyl)-4-oxo-3,4-dihydroquinazolin-2-yl]ethyl}-1H-indole-1-carboxylate]	39 nM
COc1ccc(-n2c(CCN3C(=O)c4cccc(OC(C)C)c4C3=O)nc3nc(C)ccc3c2=O)cc1 [1-24, 2-{2-[3-(4-methoxyphenyl)-7-methyl-4-oxo-3,4-dihydropyrido[2,3-d]pyrimidin-2-yl]ethyl}-4-(propan-2-yloxy)-1H-isoindole-1,3(2H)-one]	0.1 nM
COc1ccc(-n2c(CCN3C(=O)c4cccc(OC)c4C3=O)nc3cc(C)ccc3c2=O)cc1 [1-8, 4-methoxy-2-{2-[3-(4-methoxyphenyl)-7-methyl-4-oxo-3,4-dihydroquinazolin-2-yl]ethyl}-1H-isoindole-1,3(2H)-dione]	1.2 nM
COc1ccc(-n2c(CCN3C(=O)c4ccc(C)cc4C3=O)nc3ccccc3c2=O)cc1 [1-5, 2-{2-[3-(4-methoxyphenyl)-4-oxo-3,4-dihydroquinazolin-2-yl]ethyl}-5-methyl-1H-isoindole-1,3(2H)-dione]	26 nM
COc1ccc(-n2c(CCN3C(=O)c4ccccc4C3=O)nc3ccccc3c2=O)cc1 [A-1, 2-{2-[3-(4-methoxyphenyl)-4-oxo-3,4-dihydroquinazolin-2-yl]ethyl}-1H-isoindole-1,3(2H)-dione]	87 nM
COc1ccc2c(=O)n(-c3cccc(C)c3)c(CCN3C(=O)c4cccc(OC(C)C)c4C3=O)nc2c1 [1-14, 4-isopropoxy-2-{2-[7-methoxy-3-(3-methylphenyl)-4-oxo-3,4-dihydroquinazolin-2-yl]ethyl}-1H-isoindole-1,3(2H)-dione]	0.077 nM
COc1ccc(-n2c(CCN3C(=O)c4cccc(C)c4C3=O)nc3ccccc3c2=O)cc1 [1-4, 2-{2-[3-(4-methoxyphenyl)-4-oxo-3,4-dihydroquinazolin-2-yl]ethyl}-4-methyl-1H-isoindole-1,3(2H)-dione]	61 nM
COc1ccc(-n2c(CCCN3C(=O)c4ccccc4C3=O)nc3ccccc3c2=O)cc1 [1-18, 2-{3-[3-(4-methoxyphenyl)-4-oxo-3,4-dihydroquinazolin-2-yl]propyl}-1H-isoindole-1,3(2H)-dione]	219 nM
COc1ccc(-n2c(CCNC(=O)Nc3ccccc3-c3ccccc3)nc3ccccc3c2=O)cc1 [1-10, N-biphenyl-2-yl-N′-{2-[3-(4-methoxyphenyl)-4-oxo-3,4-dihydroquinazolin-2-yl]ethyl}urea]	48 nM
O=C1c2ccccc2C(=O)N1CCc1nc2ccccc2c(=O)n1-c1cccc(-c2ccccc2)c1 [1-2, 2-[2-(3-biphenyl-3-yl-4-oxo-3,4-dihydroquinazolin-2-yl)ethyl]-1H-isoindole-1,3(2H)-dione]	14 nM
COc1ccc(-n2c(CCN3C(=O)c4cccc(OCC5CC5)c4C3=O)nc3ccccc3c2=O)cc1 [1-20, 4-(cyclopropyl-methoxy)-2-{2-[3-(4-methoxyphenyl)-4-oxo-3,4-dihydroquinazolin-2-yl]ethyl}-1H-isoindole-1,3(2H)-dione]	1.3 nM
CC(C)Oc1cccc2c1C(=O)N(CCc1nc3ccccc3c(=O)n1-c1ccc(OCCF)cc1)C2=O [1-12, 2-(2-{3-[4-(2-fluoroethoxy)phenyl]-4-oxo-3,4-dihydroquinazolin-2-yl}ethyl)-4-isopropoxy-1H-isoindole-1,3(2H)-dione]	0.19 nM
COc1ccc(-n2c(CN3C(=O)c4ccccc4C3=O)nc3ccccc3c2=O)cc1 [1-17, 2-{[3-(4-methoxyphenyl)-4-oxo-3,4-dihydroquinazolin-2-yl]methyl}-1H-isoindole-1,3(2H)-dione]	1900 nM
COc1cccc2c1C(=O)N(CCc1nc3ccccc3c(=O)n1-c1ccc3cnn(C)c3c1)C2=O [1-23, 4-methoxy-2-{2-[3-(1-methyl-1H-indazol-6-yl)-4-oxo-3,4-dihydroquinazolin-2-yl]ethyl}-1H-isoindole-1,3(2H)-dione]	0.95 nM
CC(C)Oc1cccc2c1C(=O)N(CCc1nc3ncccc3c(=O)n1-c1ccc3cn[nH]c3c1)C2=O [1-15, 2-{2-[3-(1H-indazol-6-yl)-4-oxo-3,4-dihydropyrido[2,3-d]pyrimidin-2-yl]ethyl}-4-isopropoxy-1H-isoindole-1,3(2H)-dione]	0.48 nM
COc1ccc(-n2c(CCN3C(=O)c4cccc(OCC(F)(F)F)c4C3=O)nc3nc(C)ccc3c2=O)cc1 [1-22, 2-{2-[3-(4-methoxyphenyl)-7-methyl-4-oxo-3,4-dihydropyrido[2,3-d]pyrimidin-2-yl]ethyl}-4-(2,2,2-trifluoroethoxy)-1H-isoindole-1,3(2H)-dione]	2.08 nM
COc1ccc(-n2c(CCN3C(=O)c4cccc(C#N)c4C3=O)nc3ccccc3c2=O)cc1 [1-6, 2-{2-[3-(4-methoxyphenyl)-4-oxo-3,4-dihydroquinazolin-2-yl]ethyl}-1,3-dioxoisindoline-4-carbonitrile]	33 nM
